Reference: patent US10391166B2, “Short oligonucleotides as vaccine adjuvants and therapeutic agents” (priority 2013, dated 2019)
Entries after “also recorded” stand apart in the source; their conditions may differ.

Assays:
[1] = test system: IRF3-luciferase reporter gene; assay: IRF3-luciferase reporter induction in HLE A549 cells (primary assay for NOD2 activation); assay type: cell-based, human; conditions: 12 h incubation
Protocol: The evaluation of SMNH compounds for NOD2 activation was conducted by primary, secondary, and tertiary assays. In the primary assays, SMNH compounds were tested for the induction of IRF3 expression in HLE A549 cells, which are known to endogenously express NOD2. […] SB 44, a mixture of two isomers Rp and Sp, is a prodrug of SB 40. SB 1B—the Rp isomer of SB 44 and is shown as SB 44-1 in the FIGS. 1-2.
IRF3-luciferase transfected cells were incubated with either DMSO only (UT) or SMNH compounds (μM). Following 12 h incubation, luciferase activity was measured using Dual-Luciferase Reporter Assay System (Promega) according to the manufacturer's protocol. Transfection efficiency was normalized by measuring the expression of renilla Luciferase. Luciferase units (i.e., fold induction) were measured by standard methodology (mean±standard deviation; 3 independent experiments). The results are depicted in FIG. 1.

NF-kB = assay: NF-kB-luciferase assay in HEK 293 cells transfected with RIGI and Nod2; assay type: cell-based; conditions: 10 μM; 12 h incubation
Protocol: HEK 293 cells were transfected with RIGI, pcDNA, Nod2 and NF-kB-luciferase. The cells were then incubated with SB 44 (10 μM). Following 12 h incubation, Luciferase activity was measured as described previously. The Luciferase assay results are presented as mean±S.D. from three independent experiments.

interferon-β (IFN-β) = assay: IFN-β production from human lung epithelial A549 cells; assay type: cell-based
[2] = test system: C57Bl/6 mouse bone marrow derived macrophages; assay type: cell-based
MHC-II = assay type: cell-based, mouse
IL-1β = assay: Mature IL-1β ELISA in mouse bone marrow derived primary macrophages; assay type: cell-based; conditions: alone or with MDP or BCG, caspase blockade with ZVAD-fmk
Protocol: C57Bl/6 mouse bone marrow derived primary macrophages were treated with SB 1A or SB 1B alone, MDP alone or in combination as indicated for 4 hrs. BCG was used for infection for 4 hrs and supernatants collected 18 hr later titrated for mature IL1β using ELISA. Macrophages were first treated with ZVAD-fmk (2 hrs) for caspase blockade followed by activation with SB 1A and SB 1B (4 hrs) and BCG infection (4 hrs). Cytokine was measured 18 hrs later.

M. tuberculosis = test system: M. tuberculosis; design: species or system C57Bl/6 mice; conditions: mouse, in vivo
PBMCs = assay type: cell-based
RIG-I and NOD2 = assay type: cell-based; conditions: receptor-deficient cells, exogenous RIG-I and NOD2
[3] = human liver S9 fractions
Protocol: SB 44 (10 μM) was incubated with a mix containing S9 fraction (pooled from human) (1 mg/ml), NADPH (1.3 mM) UDPGA (5 mM), Alamethicin (10 μg/ml) in 1 ml of 1×PBS buffer. S-(5′-adenosyl)-L-methionine iodide (0.1 mM), adenosine 3′-phosphate 5′-phosphosulfate lithium salt hydrate (0.1 mM) and acetyl CoA (1 mM). The metabolite samples were evaluated by HPLC and LC/MS analysis.

Vero = assay: MTT cytotoxicity assay, Vero cells; assay type: cell-based; conditions: 24-hour incubation
From the text: (§1) SDS was used as a positive cytotoxic control.

[4] = test system: Madin-Darby bovine kidney (MDBK); assay: MTT cytotoxicity assay, MDBK cells; assay type: cell-based; conditions: 24-hour incubation
From the text: as §1

[5] = test system: HFF (human foreskin fibroblasts); assay: MTT cytotoxicity assay, HFF cells; assay type: cell-based; conditions: 24-hour incubation
From the text: as §1

bacterial tester strains = assay: Bacterial mutation test (screening version, pre-incubation); conditions: up to 5000 μg/plate
Protocol: Study design: The test was performed on one occasion only. A subset of the standard tester strains (list strains) was used to evaluate the genotoxic potential of the test article.
The test article was formulated in dimethyl sulfoxide (DMSO) and tested at a maximum concentration of 5000 μg/plate (the standard limit dose for this assay) together with approximate half-log dilutions using the pre-incubation version of the bacterial mutation test. The absence of colonies on sterility check plates confirmed the absence of microbial contamination. The mean revertant colony counts for the vehicle controls were close to or within the laboratory historical control data. Appropriate positive control compounds (+/−S9 mix) induced increases in revertant colony numbers at least twice the concurrent vehicle control levels with the appropriate bacterial strain (1.5× for strain TA 100), confirming the sensitivity of the test system and activity of the S9 mix. […] No precipitation was observed.

[6] = Dose range-finding oral toxicity study in rats (single dose and 7 days); assay type: in vivo, Sprague-Dawley rats
From the text: The objective of this study was to determine potential toxic effects, to identify potential target organs of toxicity, and to determine a maximum tolerated dose (MTD) and a no observable adverse effect level (NOAEL) for the endpoints examined following daily oral gavage of SB 44 for 7 consecutive days to adult male and female Sprague-Dawley rats. Information from this study was used to design subsequent toxicity studies and determine the suitability of the proposed human dose. This study consisted of Phase A and Phase B. Phase A was a dose range-finding study. Two rats (1 male and 1 female) were included in the study. Animals were given a single dose of SB 44 at 1000 mg/kg by oral gavage (po) and observed for 3 days. […] No necropsy was performed.
In Phase B, rats (3/sex/group) were given a daily oral dose of SB 44 at 50, 250, and 1000 mg/kg/day for 7 consecutive days. A control group (3/sex) was also given a daily oral dose of the vehicle, 50% PEG 400 plus 50% HPMCT (0.1% hydroxypropyl methylcellulose and 0.2% Tween 80 in sterile water), at an equivalent volume for 7 days. Animals were sacrificed on Day 8. The following parameters were evaluated: mortality/morbidity, clinical observations, body weights, clinical pathology (hematology and serum chemistry), organ weights, and, at necropsy, macroscopic observations and microscopic histopathology for liver tissues.

[7] = 14-day oral toxicity study in rats with two-week recovery; assay type: in vivo, Sprague-Dawley rats
Protocol: (§2) Necropsies were performed on Day 15 for rats in the main study group and on Day 28 for rats in the recovery group.

[8] = test system: rat bone marrow erythrocytes; assay: Bone-marrow micronucleus evaluation in rats; assay type: in vivo, Sprague-Dawley rats; conditions: 14-day oral dosing
Protocol: as §2

COC1C(OP(=O)(OCC2OC(n3cnc4c(N)ncnc43)CC2O)SCOC(=O)OC(C)C)C(CO)OC1n1ccc(=O)[nH]c1=O (mixture of isomers) [SB 44]
IRF3 activation (IRF3-luciferase) [1]: induced IRF3 activation | induction of NF-kB activity via RIGI and Nod2 activation (NF-kB): induction of NF-kB activity; also recorded: induction of the transcription factor, NF-KB | production of IFN-β (interferon-β (IFN-β)): induces production of interferon-β | antigen presentation (Antigen-85B) in macrophages [2]: enhance antigen presentation in vitro | surface expression of MHC-II (MHC-II): increase MHC-II in MΦs; also recorded: enhances surface expression of MHC-II | induction of mature IL-1β (IL-1β): induce IL-1β only in combination with either MDP or intact BCG bacilli | antigen specific CD8 / memory T cells in lungs of re-challenged mice (M. tuberculosis): boost the magnitude of antigen specific memory T cells; also recorded: induces a robust expansion of antigen specific CD8 T cells | protection against re-challenge of tuberculosis (M. tuberculosis): induce protection against re-challenge of tuberculosis in mice | recall response against re-challenge with tuberculosis (M. tuberculosis): retain the ability to mount a better recall response | IFN production in the presence of BCG (PBMCs): modest augmentation of IFN production | enhancement of ISG-56 expression over that induced by PolyI-PolyC (RIG-I and NOD2): 2 fold | conversion of prodrug to SB 40 [3]: stereospecific conversion of SB 44 to the dinucleotide SB 40 | phase II conjugative reactions [3]: no apparent evidence of any phase II conjugative reactions | desulfurized product corresponding to SB 40 ([3]; LC/MS): < 5% | CC50 (Vero): > 1000 µM | CC50 [4]: > 1000 µM | CC50 [5]: > 1000 µM | toxicity to the bacteria (background lawn) (bacterial tester strains): non-toxic to the bacteria at the levels tested | genotoxic activity (revertant colony counts) (bacterial tester strains; absence or presence of S9 mix): did not show any evidence of genotoxic activity | NOAEL ([6]; daily oral administration for 7 consecutive days): at least 1000 mg/kg/day | adverse effects ([6]; daily oral gavage 50, 250, 1000 mg/kg/day for 7 days): no overt biologically or toxicologically significant adverse effects | clinical observation after single dose ([6]; single dose 1000 mg/kg po, observed 3 days): appeared normal | no observed effect level (NOEL) ([7]; 14-day oral study): 50 mg/kg/day | overt toxicity ([7]; 50, 200, 500 mg/kg/day oral for 14 days): did not cause overt toxicity | thymus microscopic change ([7]; males and females at 200 and 500 mg/kg/day): Minimal to mild increases in thymic phagocytic macrophages | induction of micronuclei [8]: not found to induce micronuclei
